Assay results as given in patent US5849888A, “Azoamide compound” (Wako Pure Chemical Industries, Ltd., priority 1996, dated 1998).

Assays:
[1] = Solubility of azoamide compound in 100 g of solvent at 25° C. (Table 1); format: physicochemical; conditions: for Solubility in ethyl acetate: in 100 g of ethyl acetate; for Solubility in toluene: in 100 g of toluene
Text: *^) Solubility of each azoamide compound in 100 g of the solvent at
A polymerization initiator having solubility of generally 2% or more, preferably 5% or more has high applicability, and it can be found from the above Table 1 that any of the azoamide compounds of the present invention is suitable for a polymerization reaction using an organic solvent.

[2] = Half-life test (thermal decomposition in ethyl benzene, 10-hour half life temperature); format: physicochemical; conditions: 1% (w/w) solution in ethyl benzene; calculated by Arrhenius equation
Description: Experiment 1. Half-life test
(§1) 1 Percent (w/w) solution of each azoamide compound obtained in Examples 1 to 7 in ethyl benzene is prepared. A concentration of the azoamide compound is measured in a thermostat at pre-determined interval by 1 hour unit and a coefficient of decomposition rate constant at each temperature is obtained and then the temperature for 10 -hour half life is calculated on the basis of the coefficient by Arrhenius equation.

[3] = in words, cited from earlier work; for solubility in an organic solvent: organic solvent used in solution polymerization of an oily soluble monomer
[4] = Polymerization of styrene at 110° C. with azoamide initiator (Experiment 2); conditions: 4×10^-4 M initiator
Description: (§2) 5 ml of styrene containing a 4×10^-4 M of azoamide compound which is obtained example 1, 3, or 6 were placed in individual glass tubes. After deairing, the tubes were sealed under reduced pressure. Each tube was placed into the thermostat adjusted at 110° C. to carry out the polymerization. The tube was took out from the thermostat after predetermined time, cooled under ice water immediately to stop polymerization. The reaction solution was poured into methanol to deposit and precipitate the obtained polymer. The precipitate was recovered by filtration, and dried at 60° C. under reduced pressure for 8 hours. The weight of the polymer obtained was measured and the conversion was calculated.

[5] = Decomposition rate constant at 110° C. (Table 3); format: physicochemical
Description: as §1, §2

[6] = listed as 2,2'-azobis (N-methyl-2-methyl propionamide)

| SMILES | Solubility in ethyl acetate [1] | Solubility in toluene [1] | temperature for 10-hour half life [2] [°C] | Solubility in ethyl acetate [1, 6] | Solubility in toluene [1, 6] | decomposition rate constant [5] [s⁻¹] | solubility in water [3] | solubility in an organic solvent [3] | Conversion ([4]; polymerization time 1 h) [%] | Conversion ([4]; polymerization time 2 h) [%] | Conversion ([4]; polymerization time 3 h) [%] | Conversion ([4]; polymerization time 4 h) [%] | Conversion ([4]; polymerization time 6 h) [%] | Conversion ([4]; polymerization time 8 h) [%] |
| --- | --- | --- | --- | --- | --- | --- | --- | --- | --- | --- | --- | --- | --- | --- |
| CC(C)CNC(=O)C(C)(C)N=NC(C)(C)C(=O)NCC(C)C [Example 2, 2,2'-azobis [N-(2-methylpropyl)-2-methylpropionamide]] | 14.0 g | 8.0 g | 112.0 | – | – | – | – | – | – | – | – | – | – | – |
| CNC(=O)C(C)(C)N=NC(C)(C)C(=O)NC [Comparative example, 2,2'-azobis (N-methyl-2-methyl propionamide), reference compound] | 1.2 g | ≤ 0.5 g | – | low solubility | low solubility | – | water-soluble | poor soluble | – | – | – | – | – | – |
| CC(C)(N=NC(C)(C)C(=O)NCO)C(=O)NCO [2,2'-azobis [2-methyl-N-(hydroxymethyl)-propionamide]] | – | – | – | – | – | – | water-soluble | poor soluble | – | – | – | – | – | – |
| CC(C)(N=NC(C)(C)C(=O)NC1CCCCC1)C(=O)NC1CCCCC1 [Example 1, 2,2'-azobis (N-cyclohexyl-2-methyl propionamide)] | 3.5 g | 5.5 g | 111.0 | – | – | 1.72e-05 | – | – | 8.7 | 20.5 | 30.8 | 41.2 | 62.5 | 81.0 |
| CC(C)(N=NC(C)(C)C(N)=O)C(N)=O [2,2'-azobis (2-methylpropionamide)] | – | – | – | – | – | – | water-soluble | poor soluble | – | – | – | – | – | – |

The next lines start with results.

| Solubility in ethyl acetate [1] | Solubility in toluene [1] | temperature for 10-hour half life [2] [°C] | Solubility in ethyl acetate [1, 6] | Solubility in toluene [1, 6] | decomposition rate constant [5] [s⁻¹] | SMILES | solubility in water [3] | solubility in an organic solvent [3] | Conversion ([4]; polymerization time 1 h) [%] | Conversion ([4]; polymerization time 2 h) [%] | Conversion ([4]; polymerization time 3 h) [%] | Conversion ([4]; polymerization time 4 h) [%] | Conversion ([4]; polymerization time 6 h) [%] | Conversion ([4]; polymerization time 8 h) [%] |
| --- | --- | --- | --- | --- | --- | --- | --- | --- | --- | --- | --- | --- | --- | --- |
| 11.0 g | 5.0 g | 111.2 | – | – | – | CC(C)NC(=O)C(C)(C)N=NC(C)(C)C(=O)NC(C)C [Example 4, 2,2'-azobis [N-(2-methylethyl)-2-methylpropionamide]] | – | – | – | – | – | – | – | – |
| easily soluble | easily soluble | 110.6 | – | – | 1.79e-05 | CCCCNC(=O)C(C)(C)N=NC(C)(C)C(=O)NCCCC [Example 3, 2,2'-azobis (N-butyl-2-methyl propionamide)] | – | – | 9.2 | 20.8 | 30.8 | 41.0 | 61.2 | 82.9 |
| easily soluble | easily soluble | 110.8 | – | – | 1.74e-05 | CCCNC(=O)C(C)(C)N=NC(C)(C)C(=O)NCCC [Example 6, 2,2'-azobis (N-propyl-2-methyl propionamide)] | – | – | 9.0 | 20.0 | 31.2 | 41.0 | 62.4 | 83.6 |
| easily soluble | easily soluble | 111.6 | – | – | – | CCCCCCNC(=O)C(C)(C)N=NC(C)(C)C(=O)NCCCCCC [Example 5, 2,2'-azobis (N-hexyl-2-methyl propionamide)] | – | – | – | – | – | – | – | – |
| 11.0 g | 4.0 g | 109.6 | – | – | – | CCNC(=O)C(C)(C)N=NC(C)(C)C(=O)NCC [Example 7, 2,2'-azobis (N-ethyl-2-methyl propionamide)] | – | – | – | – | – | – | – | – |
